Assay results published in article PMC8320704 (Journal of medicinal chemistry, 2015).
Like-named read-outs stand apart in the source and are kept apart here.

Legend:
[1] = target: HIV-1 IN (3′-P) (Human immunodeficiency virus type 1 group M subtype B, UniProt P04585); test: HIV-1 IN gel-based assay, 3′-processing; type: biochemical
[2] = target: HIV-1 RT RNase H (Human immunodeficiency virus type 1 group M subtype B, UniProt P04585); test: HIV-1 RT RNase H inhibition; type: biochemical
[3] = tested on: HIV-1(IIIB)
[4] = target: HIV-1 IN (ST) (Human immunodeficiency virus type 1 group M subtype B, UniProt P04585); test: HIV-1 IN gel-based assay, strand transfer; type: biochemical

Row | Structure (SMILES) | IC50 [1] | SI = CC50/EC50 ([3]; Table 1) | further results
1 | CCOC(=O)/C(O)=C/C(=O)c1cn(Cc2ccc3ccccc3n2)c2ccccc2c1=O [10aa, 2-Hydroxy-4-oxo-4-(4-oxo-1-(quinolin-2-ylmethyl)-1,4-dihydroquinolin-3-yl)but-2-enoic Acid Ethyl Ester] | > 1000 µM | – | –
2 | O=C(O)/C(O)=C/C(=O)c1cn(Cc2ccccc2F)c2c(Cl)cccc2c1=O [11v, 8-Chloro-4-[1-(2-fluorophenyl)methyl-4(1H)-quinolinon-3-yl]-2-hydroxy-4-oxo-2-butenoic Acid] | – | – | IC50 ([2]; RNase H IC50, Table 1): > 50 µM
3 | O=C(O)/C(O)=C/C(=O)c1cn(Cc2c(F)cccc2F)c2ccccc2c1=O [11l, 4-[1-(2,6-Difluorophenyl)methyl-4(1H)-quinolinon-3-yl]-2-hydroxy-4-oxo-2-butenoic Acid] | – | >6.2 | IC50 ([2]; RNase H IC50, text): ~10 µM
4 | CCOC(=O)/C(O)=C/C(=O)c1cn(CCCCc2ccccc2)c2ccccc2c1=O [10x, 2-Hydroxy-4-oxo-4-(4-oxo-1-(4-phenylbutyl)-1,4-dihydroquinolin-3-yl)but-2-enoic Acid Ethyl Ester] | > 333 µM | – | –
5 | O=C(O)/C(O)=C/C(=O)c1cn(Cc2ccc(F)c(F)c2)c2ccccc2c1=O [11m, 4-[1-(3,4-Difluorophenyl)methyl-4(1H)-quinolinon-3-yl]-2-hydroxy-4-oxo-2-butenoic Acid] | – | >3.1 | IC50 ([2]; RNase H IC50, Table 1): > 50 µM
6 | O=C(O)/C(O)=C/C(=O)c1cn(Cc2cccc(Cl)c2F)c2ccccc2c1=O [11s, 4-[1-(3-Chloro-2-fluorophenyl)methyl-4(1H)-quinolinon-3-yl]-2-hydroxy-4-oxo-2-butenoic Acid] | – | >2.1 | –
7 | CCOC(=O)/C(O)=C/C(=O)c1cn(Cc2ccc(F)cc2F)c2ccccc2c1=O [10j, 4-[1-(2,4-Difluorophenyl)methyl-4(1H)-quinolinon-3-yl]-2-hydroxy-4-oxo-2-butenoic Acid Ethyl Ester] | – | >86.2 | selectivity index (SI) [3]: > 86.2
8 | COc1ccccc1Cn1cc(C(=O)/C=C(\O)C(=O)O)c(=O)c2ccccc21 [11c, 4-[1-(2-Methoxyphenyl)methyl-4(1H)-quinolinon-3-yl]-2-hydroxy-4-oxo-2-butenoic Acid] | > 4.1 µM | >5.4 | –
9 | O=C(O)/C(O)=C/C(=O)c1cn(Cc2ccc3ccccc3c2)c2ccccc2c1=O [11y, 2-Hydroxy-4-(1-(naphthalen-2-ylmethyl)-4-oxo-1,4-dihydroquinolin-3-yl)-4-oxobut-2-enoic Acid] | – | – | SI = CC50/EC50 ([3]; Table 2): >10.4; IC50 [4]: < 0.45 µM
10 | CCOC(=O)/C(O)=C/C(=O)c1cn(Cc2ccncc2)c2ccccc2c1=O [10z, 2-Hydroxy-4-oxo-4-(4-oxo-1-(pyridin-4-ylmethyl)-1,4-dihydroquinolin-3-yl)but-2-enoic Acid Ethyl Ester] | > 333 µM | – | –
11 | CCOC(=O)/C(O)=C/C(=O)c1cn(Cc2ccc(O)cc2)c2ccccc2c1=O [10g, 4-[1-(4-Hydroxyphenyl)methyl-4(1H)-quinolinon-3-yl]-2-hydroxy-4-oxo-2-butenoic Acid Ethyl Ester] | > 333 µM | >1.6 | –
12 | CCOC(=O)/C(O)=C/C(=O)c1cn(Cc2ccc(F)c(F)c2)c2ccccc2c1=O [10m, 4-[1-(3,4-Difluorophenyl)methyl-4(1H)-quinolinon-3-yl]-2-hydroxy-4-oxo-2-butenoic Acid Ethyl Ester] | – | >5.1 | –
13 | O=C(O)/C(O)=C/C(=O)c1cn(Cc2cccc(F)c2)c2ccccc2c1=O [11d, 4-[1-(3-Fluorophenyl)methyl-4(1H)-quinolinon-3-yl]-2-hydroxy-4-oxo-2-butenoic Acid] | – | >1.8 | –
14 | O=C(O)/C(O)=C/C(=O)c1cn(Cc2ccncc2)c2ccccc2c1=O [11z, 2-Hydroxy-4-oxo-4-(4-oxo-1-(pyridin-4-ylmethyl)-1,4-dihydroquinolin-3-yl)but-2-enoic Acid] | > 1000 µM | – | –
15 | CCOC(=O)/C(O)=C/C(=O)c1cn(Cc2ccccc2)c2ccccc2c1=O [10a, 4-[1-Phenylmethyl-4(1H)-quinolinon-3-yl]-2-hydroxy-4-oxo-2-butenoic Acid Ethyl Ester] | > 1000 µM | >50 | –
16 | O=C(O)/C(O)=C/C(=O)c1cn(Cc2cc(F)cc(F)c2)c2ccccc2c1=O [11n, 4-[1-(3,5-Difluorophenyl)methyl-4(1H)-quinolinon-3-yl]-2-hydroxy-4-oxo-2-butenoic Acid] | – | – | IC50 ([2]; RNase H IC50, Table 1): > 50 µM
17 | CCOC(=O)/C(O)=C/C(=O)c1cn(Cc2ccc(F)c(Cl)c2)c2ccccc2c1=O [10t, 4-[1-(3-Chloro-4-fluorophenyl)methyl-4(1H)-quinolinon-3-yl]-2-hydroxy-4-oxo-2-butenoic Acid Ethyl Ester] | – | >2.9 | –
18 | CCOC(=O)/C(O)=C/C(=O)c1cn(Cc2cc(F)cc(F)c2)c2ccccc2c1=O [10n, 4-[1-(3,5-Difluorophenyl)methyl-4(1H)-quinolinon-3-yl]-2-hydroxy-4-oxo-2-butenoic Acid Ethyl Ester] | – | >1.5 | –

Row | Structure (SMILES) | IC50 [1] | SI = CC50/EC50 ([3]; Table 1) | further results
19 | CCOC(=O)/C(O)=C/C(=O)c1cn(Cc2ccc3ccccc3c2)c2ccccc2c1=O [10y, 2-Hydroxy-4-(1-(naphthalen-2-ylmethyl)-4-oxo-1,4-dihydroquinolin-3-yl)-4-oxobut-2-enoic Acid Ethyl Ester] | > 333 µM | – | –
20 | CCOC(=O)/C(O)=C/C(=O)c1cn(Cc2ccc(F)c(Cl)c2)c2c(Cl)cccc2c1=O [10u, 8-Chloro-4-[1-(3-chloro-4-fluorophenyl)methyl-4(1H)-quinolinon-3-yl]-2-hydroxy-4-oxo-2-butenoic Acid Ethyl Ester] | > 333 µM | – | –
21 | CCOC(=O)/C(O)=C/C(=O)c1cn(Cc2c(F)cccc2F)c2ccccc2c1=O [10l, 4-[1-(2,6-Difluorophenyl)methyl-4(1H)-quinolinon-3-yl]-2-hydroxy-4-oxo-2-butenoic Acid Ethyl Ester] | > 12.3 µM | >250 | selectivity index (SI) [3]: > 250
22 | O=C(O)/C(O)=C/C(=O)c1cn(Cc2cc(F)ccc2F)c2ccccc2c1=O [11k, 4-[1-(2,5-Difluorophenyl)methyl-4(1H)-quinolinon-3-yl]-2-hydroxy-4-oxo-2-butenoic Acid] | – | – | IC50 ([2]; RNase H IC50, Table 1): > 50 µM
23 | O=C(O)/C(O)=C/C(=O)c1cn(Cc2ccccc2F)c2ccccc2c1=O [11b, 4-[1-(2-Fluorophenyl)methyl-4(1H)-quinolinon-3-yl]-2-hydroxy-4-oxo-2-butenoic Acid] | – | >19.2 | IC50 ([2]; RNase H IC50, Table 1): > 50 µM
24 | O=C(O)/C(O)=C/C(=O)c1cn(Cc2ccc(O)cc2)c2ccccc2c1=O [11g, 4-[1-(4-Hydroxyphenyl)methyl-4(1H)-quinolinon-3-yl]-2-hydroxy-4-oxo-2-butenoic Acid] | > 37 µM | – | IC50 ([2]; RNase H IC50, text): ~10 µM
25 | CCOC(=O)/C(O)=C/C(=O)c1cn(Cc2ccccc2F)c2cc(Cl)ccc2c1=O [10w, 4-[7-Chloro-1-(2-fluorophenyl)methyl-4(1H)-quinolinon-3-yl]-2-hydroxy-4-oxo-2-butenoic Acid Ethyl Ester] | – | >4.5 | –
26 | CCOC(=O)/C(O)=C/C(=O)c1cn(Cc2ccccc2OC)c2ccccc2c1=O [10c, 4-[1-(2-Methoxyphenyl)methyl-4(1H)-quinolinon-3-yl]-2-hydroxy-4-oxo-2-butenoic Acid Ethyl Ester] | > 333 µM | >19.2 | –
27 | COc1ccc(Cn2cc(C(=O)/C=C(\O)C(=O)O)c(=O)c3ccccc32)cc1 [11h, 4-[1-(4-Methoxyphenyl)methyl-4(1H)-quinolinon-3-yl]-2-hydroxy-4-oxo-2-butenoic Acid] | – | – | IC50 ([2]; RNase H IC50, Table 1): > 50 µM
28 | O=C(O)/C(O)=C/C(=O)c1cn(Cc2ccc(Cl)cc2)c2ccccc2c1=O [11f, 4-[1-(4-Chlorophenyl)methyl-4(1H)-quinolinon-3-yl]-2-hydroxy-4-oxo-2-butenoic Acid] | – | >57.5 | IC50 ([2]; RNase H IC50, Table 1): > 50 µM; selectivity index (SI) [3]: > 57.5
29 | CCOC(=O)/C(O)=C/C(=O)c1cn(Cc2c(Cl)cccc2Cl)c2ccccc2c1=O [10p, 4-[1-(2,6-Dichlorophenyl)methyl-4(1H)-quinolinon-3-yl]-2-hydroxy-4-oxo-2-butenoic Acid Ethyl Ester] | – | >1.7 | IC50 ([2]; RNase H IC50, Table 1): > 50 µM
30 | O=C(O)/C(O)=C/C(=O)c1cn(Cc2ccc(F)cc2F)c2ccccc2c1=O [11j, 4-[1-(2,4-Difluorophenyl)methyl-4(1H)-quinolinon-3-yl]-2-hydroxy-4-oxo-2-butenoic Acid] | – | >3.6 | –
31 | CCOC(=O)/C(O)=C/C(=O)c1cn(Cc2ccccc2F)c2ccccc2c1=O [10b, 4-[1-(2-Fluorophenyl)methyl-4(1H)-quinolinon-3-yl]-2-hydroxy-4-oxo-2-butenoic Acid Ethyl Ester] | – | >33.4 | –
32 | COc1cccc(Cn2cc(C(=O)/C=C(\O)C(=O)O)c(=O)c3ccccc32)c1 [11e, 4-[1-(3-Methoxyphenyl)methyl-4(1H)-quinolinon-3-yl]-2-hydroxy-4-oxo-2-butenoic Acid] | > 4.1 µM | – | –
33 | CCOC(=O)/C(O)=C/C(=O)c1cn(Cc2cccc(F)c2)c2ccccc2c1=O [10d, 4-[1-(3-Fluorophenyl)methyl-4(1H)-quinolinon-3-yl]-2-hydroxy-4-oxo-2-butenoic Acid Ethyl Ester] | > 12.3 µM | >29.4 | –
34 | CCOC(=O)/C(O)=C/C(=O)c1cn(Cc2cccc(Cl)c2F)c2ccccc2c1=O [10s, 4-[1-(3-Chloro-2-fluorophenyl)methyl-4(1H)-quinolinon-3-yl]-2-hydroxy-4-oxo-2-butenoic Acid Ethyl Ester] | – | >5 | –
35 | O=C(O)/C(O)=C/C(=O)c1cn(Cc2ccccc2F)c2cc(Cl)ccc2c1=O [11w, 4-[7-Chloro-1-(2-fluorophenyl)methyl-4(1H)-quinolinon-3-yl]-2-hydroxy-4-oxo-2-butenoic Acid] | – | >2.9 | –
36 | CCOC(=O)/C(O)=C/C(=O)c1cn(Cc2cccc(OC)c2)c2ccccc2c1=O [10e, 4-[1-(3-Methoxyphenyl)methyl-4(1H)-quinolinon-3-yl]-2-hydroxy-4-oxo-2-butenoic Acid Ethyl Ester] | > 333 µM | – | –
